Experimental data taken from patent US9073974B2, “RGD-containing cyclic peptides” (The Regents of the University of California, priority 2009, dated 2015).
“Also recorded” adds a separate entry of the source. Bridge positions count the residues as written; N and C are the ends. Square brackets hold non-standard residues; d marks the D form. Peptide text beside a SMILES is read from it.

Columns and labels:
α9 = biological target: T1, α9 (Homo sapiens, UniProt P05556+Q13797); experiment: Staining of α9 transfected K562 cells with biotinylated peptide and streptavidin-PE (flow cytometry); format: binding; settings: 1 μM LXW7-Bio, Streptavidin-PE
T1 construct: expressed in transfected cells; host or cells: K562 (gift of Dr. Yoshikazu Takada)
Description: (§1) After one time wash, samples were tested. […] Then the specific binding equaled to substraction of nonspecific binding from total binding and Kds were analyzed.
(§2) To test the specificity of LXW7, LXW7 was prepared in biotinylated form and incubated with α1, α2, α3, α4, α6, α9, αIIbβ3 and αvβ3 transfected K562 and parent K562 cells (α5β1), followed by incubation with streptavidin-PE. […] The binding affinities of LXW7 and these cyclic RGD pentapeptides against αvβ3 integrin were compared based on their ability to inhibit FITC-Echistatin binding with αvβ3-K562.

α3 = biological target: T2, α3 (Homo sapiens, UniProt P05556+P26006); experiment: Staining of α3 transfected K562 cells with biotinylated peptide and streptavidin-PE (flow cytometry); format: binding; settings: 1 μM LXW7-Bio, Streptavidin-PE
T2 construct: expressed in transfected cells; host or cells: K562 (gift of Dr. Yoshikazu Takada)
Description: as §1, §2

αvβ3 integrin [1] = biological target: T3, αvβ3 integrin (Homo sapiens, UniProt P05106+P06756); experiment: Equilibrium binding of LXW7-Bio to αvβ3-K562 cells (flow cytometry); parameters: expressed in transfected cells; host or cells: K562 (gift of Dr. Yoshikazu Takada, UC Davis)
Description: as §1
(§3) The samples were analyzed with Coulter XL-MCL flow cytometry. The histogram and mean fluorescence intensity (MFI) were determined. The apparent Kd, IC50 were calculated using Graph Prism software (≦www.graphpad.com≧).

αvβ3 integrin [2] = biological target: T3, αvβ3 integrin; experiment: Inhibition of biotinylated LXW7 binding to αvβ3-K562 cells (flow cytometry); parameters: expressed in transfected cells; host or cells: K562 (gift of Dr. Yoshikazu Takada, UC Davis); settings: LXW9-92: inhibiting the binding of biotinylated LXW7 against αvβ3-K562 cells, LXW7 as internal reference
Description: The apparent IC50 were calculated using Graph Prism software (≦www.graphpad.com≧).
as §3

α1 = biological target: T4, α1 (Homo sapiens, UniProt P56199); experiment: Staining of α1 transfected K562 cells with biotinylated peptide and streptavidin-PE (flow cytometry); format: binding; settings: 1 μM LXW7-Bio, Streptavidin-PE
T4 construct: expressed in transfected cells; host or cells: K562 (gift of Dr. Yoshikazu Takada)
Description: as §1, §2

α2 = biological target: T5, α2 (Homo sapiens, UniProt P17301); experiment: Staining of α2 transfected K562 cells with biotinylated peptide and streptavidin-PE (flow cytometry); format: binding; settings: 1 μM LXW7-Bio, Streptavidin-PE
T5 construct: expressed in transfected cells; host or cells: K562 (gift of Dr. Yoshikazu Takada)
Description: as §1, §2

αvβ3 integrin [3] = biological target: T3, αvβ3 integrin; experiment: Inhibition of FITC-Echistatin binding to αvβ3-K562 cells (flow cytometry); parameters: expressed in transfected cells; host or cells: K562 (gift of Dr. Yoshikazu Takada, UC Davis)
Description: as §3

αvβ3 integrin [4] = biological target: T3, αvβ3 integrin; experiment: Equilibrium binding and antibody blocking of LXW7-Bio on U-87 MG glioblastoma cells (flow cytometry); parameters: host or cells: U-87MG (A5)
Description: as §1, §3

U-87 MG xenograft = experiment: In vivo and ex vivo near infra red fluorescent imaging, U-87 MG xenograft; parameters: species or system nude mice; settings: complex of Streptavidin-Cy5.5 with biotinylated peptide, 6 hrs after tail vein injection
Description: Animal studies were performed according to a protocol approved by IACUC of the University of California, Davis.
Animals were placed on a sheet of transparency in different position. […] Images were captured with a CCD camera set at F stop=0, FOV=150, and FP=0. Six hours post injection of imaging complex, the mice were conducted in vivo imaging, then were sacrificed and organs were excised for ex vivo imaging.

αvβ3 = biological target: T6, αvβ3 (Homo sapiens, UniProt P05106+P06756); experiment: Staining of αvβ3 transfected K562 cells with biotinylated peptide and streptavidin-PE (flow cytometry); format: binding; settings: 1 μM biotinylated peptide, Streptavidin-PE
T6 construct: expressed in transfected cells; host or cells: K562 (gift of Dr. Yoshikazu Takada, UC Davis)
Description: as §1, §2

αvβ3 integrin [5] = biological target: T3, αvβ3 integrin; experiment: Equilibrium binding and antibody blocking of LXW7-Bio on A375M melanoma cells (flow cytometry); parameters: host or cells: A375M (A4); U-87MG (A5)
Description: as §1, §3

αIIbβ3 = biological target: T7, αIIbβ3 (Homo sapiens, UniProt P05106+P08514); experiment: Staining of αIIbβ3 transfected K562 cells with biotinylated peptide and streptavidin-PE (flow cytometry); format: binding; settings: 1 μM biotinylated peptide, Streptavidin-PE
T7 construct: expressed in transfected cells; host or cells: K562 (gift of Dr. Jennifer Cochran and Dr. Scott D. Blystone)
Description: as §1, §2

α4 = biological target: T8, α4 (Homo sapiens, UniProt P05556+P13612); experiment: Staining of α4 transfected K562 cells with biotinylated peptide and streptavidin-PE (flow cytometry); format: binding; settings: 1 μM LXW7-Bio, Streptavidin-PE
T8 construct: expressed in transfected cells; host or cells: K562 (gift of Dr. Yoshikazu Takada)
Description: as §1, §2

α5β1 = biological target: T9, α5β1 (Homo sapiens, UniProt P05556+P08648); experiment: Staining of parent K562 cells (α5β1) with biotinylated peptide and streptavidin-PE (flow cytometry); format: binding; settings: 1 μM biotinylated peptide, Streptavidin-PE
T9 construct: host or cells: parent (non-transfected) K562
Description: as §1, §2

α6 = biological target: T10, α6 (Homo sapiens, UniProt P05556+P23229); experiment: Staining of α6 transfected K562 cells with biotinylated peptide and streptavidin-PE (flow cytometry); format: binding; settings: 1 μM LXW7-Bio, Streptavidin-PE
T10 construct: expressed in transfected cells; host or cells: K562 (gift of Dr. Yoshikazu Takada)
Description: as §1, §2

[6] = 10 μg LM609 premixed with 1 μM LXW7-Bio

T3 sequence (P06756 31-889 limits assumed): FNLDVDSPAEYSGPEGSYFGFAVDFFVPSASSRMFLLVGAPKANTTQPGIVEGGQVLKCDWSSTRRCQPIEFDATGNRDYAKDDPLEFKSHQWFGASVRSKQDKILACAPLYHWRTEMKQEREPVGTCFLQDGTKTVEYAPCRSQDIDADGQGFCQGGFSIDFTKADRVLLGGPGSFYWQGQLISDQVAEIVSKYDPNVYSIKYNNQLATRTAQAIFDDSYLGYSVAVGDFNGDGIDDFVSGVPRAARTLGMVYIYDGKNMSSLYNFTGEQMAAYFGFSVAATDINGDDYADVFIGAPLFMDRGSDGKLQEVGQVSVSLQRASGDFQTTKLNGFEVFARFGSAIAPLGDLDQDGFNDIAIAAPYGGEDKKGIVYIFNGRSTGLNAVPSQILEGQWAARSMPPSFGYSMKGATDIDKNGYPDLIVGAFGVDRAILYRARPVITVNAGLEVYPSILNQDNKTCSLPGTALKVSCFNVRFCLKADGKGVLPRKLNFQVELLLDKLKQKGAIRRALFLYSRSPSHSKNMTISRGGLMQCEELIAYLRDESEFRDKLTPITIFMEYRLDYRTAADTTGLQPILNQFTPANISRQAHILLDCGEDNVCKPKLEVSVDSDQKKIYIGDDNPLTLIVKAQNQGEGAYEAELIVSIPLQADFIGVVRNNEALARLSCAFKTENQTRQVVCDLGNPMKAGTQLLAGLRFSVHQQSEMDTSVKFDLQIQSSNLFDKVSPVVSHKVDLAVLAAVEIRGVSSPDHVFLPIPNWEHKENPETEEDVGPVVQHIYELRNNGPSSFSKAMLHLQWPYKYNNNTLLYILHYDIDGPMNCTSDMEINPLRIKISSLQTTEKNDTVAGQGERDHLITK
T3 sequence (P06756 891-1048 partner limits assumed): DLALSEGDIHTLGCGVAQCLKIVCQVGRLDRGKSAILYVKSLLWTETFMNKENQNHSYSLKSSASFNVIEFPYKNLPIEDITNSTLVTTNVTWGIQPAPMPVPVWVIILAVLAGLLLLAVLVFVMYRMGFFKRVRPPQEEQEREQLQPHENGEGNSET
T3 sequence (P05106 27-788): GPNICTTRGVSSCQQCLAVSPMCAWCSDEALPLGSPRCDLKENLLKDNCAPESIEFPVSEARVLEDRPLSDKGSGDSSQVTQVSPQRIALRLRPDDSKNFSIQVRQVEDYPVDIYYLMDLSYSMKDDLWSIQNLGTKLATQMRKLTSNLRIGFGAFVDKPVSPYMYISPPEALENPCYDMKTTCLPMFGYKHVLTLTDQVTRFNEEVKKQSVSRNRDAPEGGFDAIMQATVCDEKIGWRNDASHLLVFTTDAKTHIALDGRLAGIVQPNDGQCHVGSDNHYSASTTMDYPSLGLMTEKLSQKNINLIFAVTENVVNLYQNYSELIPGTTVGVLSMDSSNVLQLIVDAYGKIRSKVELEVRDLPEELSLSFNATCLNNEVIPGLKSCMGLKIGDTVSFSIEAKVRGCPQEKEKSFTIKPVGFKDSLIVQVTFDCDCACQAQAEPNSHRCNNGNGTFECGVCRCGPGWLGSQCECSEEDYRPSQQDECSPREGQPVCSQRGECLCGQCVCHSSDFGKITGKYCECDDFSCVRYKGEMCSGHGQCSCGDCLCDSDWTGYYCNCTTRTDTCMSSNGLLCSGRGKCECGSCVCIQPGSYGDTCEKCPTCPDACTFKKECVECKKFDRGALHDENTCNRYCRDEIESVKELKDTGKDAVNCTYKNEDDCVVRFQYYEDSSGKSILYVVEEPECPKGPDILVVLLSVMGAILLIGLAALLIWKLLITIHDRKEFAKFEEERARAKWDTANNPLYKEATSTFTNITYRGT
T1 sequence (Q13797 30-1035): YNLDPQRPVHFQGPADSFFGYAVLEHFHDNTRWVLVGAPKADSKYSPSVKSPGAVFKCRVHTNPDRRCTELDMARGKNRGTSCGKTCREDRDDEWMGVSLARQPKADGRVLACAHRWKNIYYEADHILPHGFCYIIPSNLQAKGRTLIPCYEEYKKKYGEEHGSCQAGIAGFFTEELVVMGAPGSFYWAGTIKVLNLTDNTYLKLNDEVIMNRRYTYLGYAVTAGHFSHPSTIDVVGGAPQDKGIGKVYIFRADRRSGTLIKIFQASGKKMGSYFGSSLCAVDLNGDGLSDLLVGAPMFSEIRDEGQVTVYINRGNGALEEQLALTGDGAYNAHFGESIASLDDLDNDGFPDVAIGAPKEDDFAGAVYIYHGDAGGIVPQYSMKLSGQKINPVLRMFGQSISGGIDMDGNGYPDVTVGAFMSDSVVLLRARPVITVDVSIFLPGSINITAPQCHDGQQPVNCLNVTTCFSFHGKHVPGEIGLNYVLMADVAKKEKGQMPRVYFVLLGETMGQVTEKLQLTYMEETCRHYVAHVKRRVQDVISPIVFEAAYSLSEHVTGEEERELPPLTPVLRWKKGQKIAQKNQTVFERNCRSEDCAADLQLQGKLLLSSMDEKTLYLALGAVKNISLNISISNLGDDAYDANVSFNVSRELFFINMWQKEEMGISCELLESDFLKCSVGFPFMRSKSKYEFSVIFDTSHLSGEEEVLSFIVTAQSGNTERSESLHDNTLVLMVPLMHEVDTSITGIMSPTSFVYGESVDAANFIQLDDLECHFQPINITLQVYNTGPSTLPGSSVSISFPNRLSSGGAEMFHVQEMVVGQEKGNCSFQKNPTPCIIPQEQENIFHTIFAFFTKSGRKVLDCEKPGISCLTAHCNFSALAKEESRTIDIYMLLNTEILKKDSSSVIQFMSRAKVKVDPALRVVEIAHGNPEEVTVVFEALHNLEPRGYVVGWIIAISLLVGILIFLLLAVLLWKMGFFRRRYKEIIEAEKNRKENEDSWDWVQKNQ
T1 sequence (P05556 21-798): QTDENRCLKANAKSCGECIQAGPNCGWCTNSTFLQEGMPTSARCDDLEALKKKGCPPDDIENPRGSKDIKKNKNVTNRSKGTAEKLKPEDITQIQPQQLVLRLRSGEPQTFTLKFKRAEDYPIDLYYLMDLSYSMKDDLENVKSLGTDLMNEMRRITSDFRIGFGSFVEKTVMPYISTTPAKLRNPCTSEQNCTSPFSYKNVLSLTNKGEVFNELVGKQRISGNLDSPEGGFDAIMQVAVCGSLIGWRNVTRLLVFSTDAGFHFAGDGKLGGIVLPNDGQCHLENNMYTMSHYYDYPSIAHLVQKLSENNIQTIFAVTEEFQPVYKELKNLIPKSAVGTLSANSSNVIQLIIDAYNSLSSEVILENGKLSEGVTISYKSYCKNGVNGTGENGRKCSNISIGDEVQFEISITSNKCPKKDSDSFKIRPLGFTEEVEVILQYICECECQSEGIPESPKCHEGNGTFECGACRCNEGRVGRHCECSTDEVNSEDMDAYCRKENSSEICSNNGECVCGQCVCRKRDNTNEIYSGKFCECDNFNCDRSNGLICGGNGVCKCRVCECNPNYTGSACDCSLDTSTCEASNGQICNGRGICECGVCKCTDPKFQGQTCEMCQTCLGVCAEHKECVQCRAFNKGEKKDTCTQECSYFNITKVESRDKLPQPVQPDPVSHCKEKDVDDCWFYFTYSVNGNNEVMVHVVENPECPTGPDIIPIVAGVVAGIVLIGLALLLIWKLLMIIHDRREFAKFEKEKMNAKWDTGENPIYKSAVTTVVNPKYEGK
T2 sequence (P26006 33-872 limits assumed): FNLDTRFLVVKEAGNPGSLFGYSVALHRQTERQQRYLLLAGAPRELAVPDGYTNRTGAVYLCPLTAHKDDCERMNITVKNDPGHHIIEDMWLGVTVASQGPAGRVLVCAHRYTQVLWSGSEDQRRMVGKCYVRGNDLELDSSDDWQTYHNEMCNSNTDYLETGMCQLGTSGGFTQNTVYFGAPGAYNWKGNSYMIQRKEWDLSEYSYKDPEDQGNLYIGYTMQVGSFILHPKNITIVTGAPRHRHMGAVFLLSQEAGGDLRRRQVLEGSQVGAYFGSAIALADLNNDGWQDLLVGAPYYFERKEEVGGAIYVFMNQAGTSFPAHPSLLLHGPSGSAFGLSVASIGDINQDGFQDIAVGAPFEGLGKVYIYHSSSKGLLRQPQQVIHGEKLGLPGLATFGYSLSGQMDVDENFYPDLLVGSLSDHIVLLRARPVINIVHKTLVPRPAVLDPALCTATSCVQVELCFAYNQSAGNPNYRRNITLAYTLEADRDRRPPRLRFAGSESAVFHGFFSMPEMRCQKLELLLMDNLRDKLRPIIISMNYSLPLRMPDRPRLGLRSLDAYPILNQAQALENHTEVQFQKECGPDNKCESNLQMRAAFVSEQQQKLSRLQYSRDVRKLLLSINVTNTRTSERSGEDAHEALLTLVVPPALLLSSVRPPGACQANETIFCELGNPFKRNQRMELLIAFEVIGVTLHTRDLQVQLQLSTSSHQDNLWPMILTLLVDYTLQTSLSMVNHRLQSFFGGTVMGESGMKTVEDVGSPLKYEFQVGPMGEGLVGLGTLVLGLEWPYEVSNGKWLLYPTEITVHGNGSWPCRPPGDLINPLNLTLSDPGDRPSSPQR
T2 sequence (P26006 873-1051 partner limits assumed): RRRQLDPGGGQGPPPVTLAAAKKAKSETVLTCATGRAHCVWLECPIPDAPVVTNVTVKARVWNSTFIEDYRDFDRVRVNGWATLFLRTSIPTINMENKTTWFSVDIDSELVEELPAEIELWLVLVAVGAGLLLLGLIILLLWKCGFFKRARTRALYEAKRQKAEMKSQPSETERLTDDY
T2 sequence (P05556 21-798): as the sequence (P05556 21-798) above
T6 sequence (P06756 31-889 limits assumed): as the sequence (P06756 31-889 limits assumed) above
T6 sequence (P06756 891-1048 partner limits assumed): as the sequence (P06756 891-1048 partner limits assumed) above
T6 sequence (P05106 27-788): as the sequence (P05106 27-788) above

## CC(C)[C@H]1NC(=O)[C@@H](CC(=O)O)NC(=O)[C@H](CC(=O)O)NC(=O)CNC(=O)[C@H](CCCNC(=N)N)NC(=O)CNC(=O)[C@H](N)CSSC[C@H](C(N)=O)NC1=O [LXW7, cGRGDdvc] (H-[dC]GRGD[dD][dV][dC]-NH2; disulfide 1-8)
α9
  binding with α9: no binding; also recorded: not at all
α3
  binding with α3: no binding; also recorded: not at all
αvβ3 integrin [1]
  Bmax (A.U): 1394 ± 57 A.U
  Kd: 0.076 ± 0.01 µM
αvβ3 integrin [2]
  IC50: 0.59 µM
α1
  binding with α1: no binding; also recorded: not at all
α2
  binding with α2: no binding; also recorded: not at all
αvβ3 integrin [3]
  binding strength to αvβ3 integrin, biotinylated versus non-biotinylated, in words: near identical binding strength
αvβ3 integrin [3]; LXW1-8: inhibition of binding of FITC-Echistatin against αvβ3-K562, class symbols, read-out: IC50
  IC50: < 1 µM
αvβ3 integrin [4]; [6]
  binding to U-87 MG cells in presence of anti-αvβ3 antibody (LM609): markedly blocked
αvβ3 integrin [4]; U-87 MG
  Bmax (A.U): 86 ± 4 A.U
  Kd: 0.072 ± 0.015 µM
U-87 MG xenograft
  liver uptake, ex vivo imaging: low
  tumor uptake, ex vivo imaging: high
αvβ3
  binding with αvβ3: strong positive binding; also recorded: strongly bound
αvβ3 integrin [5]; [6]
  binding to A375M cells in presence of anti-αvβ3 antibody (LM609): markedly blocked
αvβ3 integrin [5]; A375M
  Bmax (A.U): 71 ± 4 A.U
  Kd: 0.089 ± 0.008 µM
αIIbβ3
  binding with αIIbβ3: weak cross-reaction; also recorded: weakly
α4
  binding with α4: no binding
α5β1
  binding with α5β1 (α5): no binding; also recorded: not at all
α6
  binding with α6: no binding; also recorded: not at all
